Experiment: xn = mol fraction of the nth substance listed

O=[N+]([O-])c1ccccc1 + CC(=O)O
viscosity [mPa·s], 101 kPa
Conditions	x2 = 0.165	x2 = 0.3078	x2 = 0.4326	x2 = 0.5425	x2 = 0.6402	x2 = 0.7274	x2 = 0.8059	x2 = 0.8768	x2 = 0.9412
298.15 K	1.731	1.662	1.602	1.546	1.488	1.428	1.365	1.3	1.232
308.15 K	1.48	1.453	1.407	1.35	1.288	1.224	1.159	1.095	1.033
318.15 K	1.314	1.365	1.353	1.306	1.24	1.164	1.085	1.006	0.9289

ClC(Cl)=C(Cl)Cl + CC1CCCCC1
303.15 K, 101 kPa
Conditions	viscosity [mPa·s]
x1 = 0.1166	0.637
x1 = 0.2246	0.648
x1 = 0.3047	0.658
x1 = 0.4335	0.679
x1 = 0.5554	0.708
x1 = 0.6523	0.734
x1 = 0.77	0.762
x1 = 0.8108	0.773
x1 = 0.8864	0.79
x1 = 0.9342	0.801

CCCCCO + c1ccccc1
Conditions	viscosity [mPa·s]
293.15 K, 101.33 kPa, x1 = 0.0659	0.671
293.15 K, 101.33 kPa, x1 = 0.1351	0.715
293.15 K, 101.33 kPa, x1 = 0.218	0.791
293.15 K, 101.33 kPa, x1 = 0.2928	0.876
293.15 K, 101.33 kPa, x1 = 0.4304	1.127
293.15 K, 101.33 kPa, x1 = 0.5061	1.307
293.15 K, 101.33 kPa, x1 = 0.58	1.532
293.15 K, 101.33 kPa, x1 = 0.6971	2.016
293.15 K, 101.33 kPa, x1 = 0.729	2.159
293.15 K, 101.33 kPa, x1 = 0.8032	2.568
293.15 K, 101.33 kPa, x1 = 0.8704	3.014
293.15 K, 101.33 kPa, x1 = 0.9454	3.594
298.15 K, 101 kPa, x1 = 0.04	0.616
298.15 K, 101 kPa, x1 = 0.09	0.641
298.15 K, 101 kPa, x1 = 0.14	0.669
298.15 K, 101 kPa, x1 = 0.18	0.709
298.15 K, 101 kPa, x1 = 0.37	0.936
298.15 K, 101 kPa, x1 = 0.47	1.132
298.15 K, 101 kPa, x1 = 0.57	1.36
298.15 K, 101 kPa, x1 = 0.78	1.963

ClC(Cl)=C(Cl)Cl + CCC(C)O
viscosity [mPa·s]
Conditions	x1 = 0.1024	x1 = 0.213	x1 = 0.3172	x1 = 0.4016	x1 = 0.5142	x1 = 0.6125	x1 = 0.7018	x1 = 0.7817	x1 = 0.8032	x1 = 0.9108
298.15 K, 101.3 kPa	–	–	–	–	–	–	–	1.005	–	–
303.15 K, 101.33 kPa	1.918	1.508	1.263	1.127	1.005	0.93	0.884	–	0.852	0.822

CCCCCCCC + CO
298.15 K, 101.33 kPa
Conditions	viscosity [mPa·s]
x1 = 0.0147	0.553
x2 = 0.0367	0.536
x2 = 0.0682	0.547
x2 = 0.0725	0.548
x2 = 0.0933	0.555
x2 = 0.1159	0.563
x2 = 0.9531	0.556
x2 = 0.9687	0.554

C1CCC2CCCCC2C1 (centres undefined) + COC(C)(C)C
303.15 K, 101 kPa
Conditions	viscosity [mPa·s]
x2 = 0.1134	1.739
x2 = 0.184	1.547
x2 = 0.2577	1.367
x2 = 0.3906	1.089
x2 = 0.4774	0.935
x2 = 0.5234	0.863
x2 = 0.6441	0.694
x2 = 0.7771	0.543
x2 = 0.8937	0.431

O=[N+]([O-])c1ccccc1 + CO
viscosity [mPa·s]
Conditions	298.15 K	303.15 K
101 kPa, x1 = 0.0148	0.5642	–
101 kPa, x2 = 0.0719	1.698	–
101 kPa, x2 = 0.2616	1.416	–
101 kPa, x2 = 0.4788	1.161	–
101 kPa, x2 = 0.5889	1.036	–
101 kPa, x2 = 0.7539	0.8366	–
101 kPa, x2 = 0.8593	0.7113	–
101 kPa, x2 = 0.9296	0.6279	–
101.33 kPa, x1 = 0.0281	0.5789	0.541
101.33 kPa, x1 = 0.0612	0.611	0.5673
101.33 kPa, x1 = 0.1003	0.6507	0.607
101.33 kPa, x1 = 0.1478	0.7156	0.6653
101.33 kPa, x1 = 0.2806	0.8769	0.81
101.33 kPa, x1 = 0.3909	1.006	0.9279
101.33 kPa, x1 = 0.5102	1.156	1.093
101.33 kPa, x1 = 0.5937	–	1.298
101.33 kPa, x1 = 0.8005	1.559	1.485
101.33 kPa, x1 = 0.8978	1.693	1.534

CC(C)CCl + CC(C)CO
viscosity [mPa·s], 101.33 kPa
Conditions	x1 = 0.1154	x1 = 0.2046	x1 = 0.3086	x1 = 0.4017	x1 = 0.4943	x1 = 0.6102	x1 = 0.7057	x1 = 0.8002	x1 = 0.8978
298.15 K	2.364	1.728	1.287	1.019	0.8243	0.6718	0.5775	0.5104	0.4593
313.15 K	1.56	1.191	0.9221	0.7582	0.6325	0.5324	0.4679	0.4215	0.3866

CCCCCCCCCCCCCC + CCCCOC(C)=O
298.15 K, 101.3 kPa
Conditions	viscosity [mPa·s]
x2 = 0.1284	1.825
x2 = 0.2404	1.622
x2 = 0.3362	1.467
x2 = 0.4227	1.339
x2 = 0.5018	1.23
x2 = 0.5367	1.183
x2 = 0.5715	1.142
x2 = 0.6959	0.9335
x2 = 0.8024	0.8736
x2 = 0.8903	0.7842
x2 = 0.948	0.7283

C=COCCCC + COC(=O)c1ccccc1
viscosity [mPa·s], 100 kPa
Conditions	x2 = 0.0898	x2 = 0.1468	x2 = 0.228	x2 = 0.3145	x2 = 0.4054	x2 = 0.5056	x2 = 0.6161	x2 = 0.7316	x2 = 0.8597
303.15 K	0.437	0.497	0.571	0.657	0.761	0.891	1.038	1.205	1.422
308.15 K	0.421	0.478	0.546	–	–	–	0.974	1.124	1.319
313.15 K	0.4	0.452	0.515	0.585	0.671	0.778	0.897	1.034	1.205

ClC(Cl)=C(Cl)Cl + CCCCCCC
303.15 K, 101 kPa
Conditions	viscosity [mPa·s]
x1 = 0.196	0.442
x1 = 0.3642	0.497
x1 = 0.4421	0.529
x1 = 0.4713	0.543
x1 = 0.5272	0.568
x1 = 0.6106	0.61
x1 = 0.6939	0.653
x1 = 0.7237	0.668
x1 = 0.8091	0.714
x1 = 0.9254	0.775

C1CCC2CCCCC2C1 (centres undefined) + CC(C)CC(C)(C)C
viscosity [mPa·s], 101 kPa
Conditions	x2 = 0.1031	x2 = 0.1995	x2 = 0.299	x2 = 0.4001	x2 = 0.5004	x2 = 0.6002	x2 = 0.6994	x2 = 0.8002	x2 = 0.899
293.15 K	2.019	1.701	1.435	1.203	1.026	0.876	0.758	0.656	0.571
298.15 K	1.842	1.561	1.323	1.114	0.955	0.818	0.711	0.62	0.54
303.15 K	1.688	1.436	1.223	1.034	0.89	0.765	0.667	0.581	0.509
308.15 K	1.553	1.327	1.135	0.963	0.831	0.717	0.627	0.547	0.482
313.15 K	1.434	1.23	1.056	0.905	0.778	0.673	0.59	0.516	0.456
318.15 K	1.328	1.142	0.983	0.838	0.727	0.63	0.552	0.483	0.425
323.15 K	1.234	1.066	0.921	0.788	0.686	0.597	0.525	0.461	0.408

O=[N+]([O-])c1ccccc1 + CCCO
viscosity [mPa·s], 101.33 kPa
Conditions	x1 = 0.0517	x1 = 0.1088	x1 = 0.173	x1 = 0.2456	x1 = 0.3276	x1 = 0.4224	x1 = 0.5322	x1 = 0.6613	x1 = 0.8145
298.15 K	1.815	1.725	1.606	1.56	1.511	1.49	1.478	1.494	1.55
303.15 K	1.613	1.558	1.455	1.394	1.402	1.363	1.341	1.352	1.431

CCCCCCCCCCCCCC[P+](CCCCCC)(CCCCCC)CCCCCC.N#C[N-]C#N + O
Conditions	viscosity [mPa·s]
303.11 K, 101 kPa, x2 = 0.198	284.5

CC=Cc1ccc(O)c(OC)c1 + CCCCCOC(C)=O
298.15 K, 101 kPa
Conditions	viscosity [mPa·s]
x1 = 0.062	0.92
x1 = 0.119	1.06

CCCCCO + O
viscosity [mPa·s], 101 kPa
Conditions	298.15 K	308.15 K	318.15 K
x2 = 0.0288	3.509	2.654	–
x2 = 0.029	–	–	2.055
x2 = 0.0453	3.487	2.638	–
x2 = 0.066	3.468	2.62	–
x2 = 0.0685	–	–	2.026
x2 = 0.0859	3.451	2.606	–
x2 = 0.0914	–	–	2.016
x2 = 0.1012	–	–	2.006
x2 = 0.113	3.437	2.591	–
x2 = 0.1301	3.431	2.585	1.997
x2 = 0.1472	3.429	2.579	–
x2 = 0.149	–	–	1.991
x2 = 0.1655	–	2.577	–
x2 = 0.1689	3.424	–	1.985
x2 = 0.1776	3.426	2.576	–
x2 = 0.2023	–	–	1.98
x2 = 0.216	3.428	2.572	–
x2 = 0.2419	3.438	2.575	1.979

[Li+].[OH-] + O
viscosity [mPa·s], 101 kPa
Conditions	x1 = 0.0089	x1 = 0.02284	x1 = 0.0263	x1 = 0.0385	x1 = 0.0513	x1 = 0.075	x1 = 0.0776	x1 = 0.08062
298.15 K	–	1.245	–	1.602	–	–	–	3.29
308.15 K	–	0.996	–	1.261	–	–	–	2.467
323.15 K	0.609	0.748	0.778	0.931	1.114	1.596	1.66	1.743

CN(C)C=O + CC(C)O
viscosity [mPa·s], 101 kPa
Conditions	298.15 K	303.15 K	308.15 K	313.15 K	318.15 K	323.15 K
x1 = 0.0879	1.65	1.44	1.3	1.14	–	–
x1 = 0.0995	–	1.385	1.237	1.096	0.9913	0.88
x1 = 0.1606	1.46	1.28	1.16	1.03	–	–
x1 = 0.1992	–	1.166	1.057	0.9438	0.8597	0.778
x1 = 0.2389	1.34	1.18	1.08	0.95	–	–
x1 = 0.3011	–	1.034	0.9443	0.8524	0.7903	0.7214
x1 = 0.3433	1.24	1.1	1.01	0.9	–	–
x1 = 0.4009	–	0.9507	0.8752	0.8075	0.7462	0.6851
x1 = 0.44	1.16	1.05	0.96	0.87	–	–
x1 = 0.4512	1.297	–	–	–	–	–
x1 = 0.4737	–	0.9177	0.8467	0.7863	0.7252	0.6742
x1 = 0.5597	1.07	0.98	0.9	0.82	–	–
x1 = 0.5987	–	0.8585	0.7964	0.7362	0.6938	0.6453
x1 = 0.6504	1.01	0.94	0.86	0.8	–	–
x1 = 0.7011	–	0.8282	0.771	0.7187	0.6776	0.6312
x1 = 0.735	0.96	0.89	0.83	0.76	–	–
x1 = 0.7991	–	0.796	0.7476	0.6985	0.6578	0.6196
x1 = 0.8522	0.89	0.83	0.78	0.72	–	–
x1 = 0.8995	–	0.7844	0.7374	0.6874	0.6507	0.614
x1 = 0.9422	0.84	0.79	0.74	0.69	–	–
